# Reference: ChEMBL document CHEMBL1201862, “PubChem BioAssay data set” (2004)
#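 The compound was tested at five concentrations on cells cultured in 96-well plates, with a 48-hour exposure period. GI50 marks 50% less growth.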 Activity calls are given as the source filed them. No stated cut-off is given here; in the data, active = GI50 up to about 1.1 µM and inactive = higher.
# Key:
# Test in all cases: inhibition of tumour cell growth, NCI panel, 48 h
# Malme-3M = system: Malme-3M
# KM12 = system: KM12
# MCF7 = system: MCF7
# DU-145 = system: DU-145
# SK-MEL-28 = system: SK-MEL-28
# SW-620 = system: SW-620
# SF-295 = system: SF-295
# BT-549 = system: BT-549
# EKVX = system: EKVX
# HCC 2998 = system: HCC 2998
# PC-3 = system: PC-3
# MDA-MB-435 = system: MDA-MB-435
# SR = system: SR
# UO-31 = system: UO-31
# SNB-75 = system: SNB-75
# SK-MEL-2 = system: SK-MEL-2
# SNB-19 = system: SNB-19
# Hs-578T = system: Hs-578T
# NCI-H522 = system: NCI-H522
# UACC-62 = system: UACC-62
# TK-10 = system: TK-10
# HCT-15 = system: HCT-15
# MOLT-4 = system: MOLT-4
# ACHN = system: ACHN
# HT-29 = system: HT-29
# NCI/ADR-RES = system: NCI/ADR-RES
# IGROV-1 = system: IGROV-1
# 786-0 = system: 786-0
# CAKI-1 = system: CAKI-1
# SK-MEL-5 = system: SK-MEL-5
# A549 = system: A549
# RXF 393 = system: RXF 393
# OVCAR-3 = system: OVCAR-3
# M14 = system: M14
# MDA-N = system: MDA-N
# NCI-H23 = system: NCI-H23
# SF-268 = system: SF-268
# SF-539 = system: SF-539
# OVCAR-8 = system: OVCAR-8
# K562 = system: K562
# SK-OV-3 = system: SK-OV-3
# SN12C = system: SN12C
# OVCAR-5 = system: OVCAR-5
# RPMI-8226 = system: RPMI-8226
# HOP-62 = system: HOP-62
# U-251 = system: U-251
# NCI-H460 = system: NCI-H460
# NCI-H226 = system: NCI-H226
# UACC-257 = system: UACC-257
# HOP-92 = system: HOP-92
# T47D = system: T47D
# COLO 205 = system: COLO 205
# A498 = system: A498
# HCT-116 = system: HCT-116
# OVCAR-4 = system: OVCAR-4
# CCRF-CEM = system: CCRF-CEM
# MDA-MB-231 = system: MDA-MB-231
# LOX IMVI = system: LOX IMVI
# HL-60 = system: HL-60
compound,measurement,setting,value
O=C(CC(NC(=O)OCc1ccccc1)C(=O)NC1Cc2ccccc2C1=O)OCc1ccccc1 (stereo not given),GI50,Malme-3M,> 100 µM (inactive)
same,GI50,KM12,> 100 µM (inactive)
same,GI50,MCF7,> 100 µM (inactive)
same,GI50,DU-145,> 100 µM (inactive)
same,GI50,SK-MEL-28,> 100 µM (inactive)
same,GI50,SW-620,> 100 µM (inactive)
same,GI50,SF-295,> 100 µM (inactive)
same,GI50,BT-549,> 100 µM (inactive)
same,GI50,EKVX,> 100 µM (inactive)
same,GI50,HCC 2998,> 100 µM (inactive)
same,GI50,PC-3,> 100 µM (inactive)
same,GI50,MDA-MB-435,> 100 µM (inactive)
same,GI50,SR,> 100 µM (inactive)
same,GI50,UO-31,> 100 µM (inactive)
same,GI50,SNB-75,59.3 µM (inactive)
same,GI50,SK-MEL-2,> 100 µM (inactive)
same,GI50,SNB-19,> 100 µM (inactive)
same,GI50,Hs-578T,84.3 µM (inactive)
same,GI50,NCI-H522,> 100 µM (inactive)
same,GI50,UACC-62,> 100 µM (inactive)
same,GI50,TK-10,> 100 µM (inactive)
same,GI50,HCT-15,> 100 µM
same,GI50,MOLT-4,> 100 µM (inactive)
same,GI50,ACHN,> 100 µM (inactive)
same,GI50,HT-29,> 100 µM (inactive)
same,GI50,NCI/ADR-RES,> 100 µM (inactive)
same,GI50,IGROV-1,> 100 µM (inactive)
same,GI50,786-0,> 100 µM (inactive)
same,GI50,CAKI-1,> 100 µM (inactive)
same,GI50,SK-MEL-5,> 100 µM (inactive)
same,GI50,A549,> 100 µM (inactive)
same,GI50,RXF 393,> 100 µM (inactive)
same,GI50,OVCAR-3,> 100 µM (inactive)
same,GI50,M14,> 100 µM (inactive)
same,GI50,MDA-N,> 100 µM (inactive)
same,GI50,NCI-H23,> 100 µM (inactive)
same,GI50,SF-268,> 100 µM (inactive)
same,GI50,SF-539,> 100 µM (inactive)
same,GI50,OVCAR-8,> 100 µM (inactive)
same,GI50,K562,> 100 µM (inactive)
same,GI50,SK-OV-3,> 100 µM (inactive)
same,GI50,SN12C,> 100 µM (inactive)
same,GI50,OVCAR-5,> 100 µM (inactive)
same,GI50,RPMI-8226,> 100 µM (inactive)
same,GI50,HOP-62,> 100 µM (inactive)
same,GI50,U-251,> 100 µM (inactive)
same,GI50,NCI-H460,> 100 µM (inactive)
same,GI50,NCI-H226,> 100 µM (inactive)
same,GI50,UACC-257,86.5 µM (inactive)
COc1ccc(/N=C(\C)c2ccncc2)cc1,GI50,Malme-3M,> 100 µM (inactive)
same,GI50,KM12,> 100 µM (inactive)
same,GI50,HOP-92,> 100 µM (inactive)
same,GI50,MCF7,66.7 µM (inactive)
same,GI50,DU-145,83 µM (inactive)
same,GI50,SK-MEL-28,> 100 µM (inactive)
same,GI50,T47D,> 100 µM (inactive)
same,GI50,SW-620,86.5 µM (inactive)
same,GI50,SF-295,> 100 µM (inactive)
same,GI50,COLO 205,> 100 µM (inactive)
same,GI50,BT-549,64 µM (inactive)
same,GI50,EKVX,> 100 µM (inactive)
same,GI50,HCC 2998,> 100 µM (inactive)
same,GI50,PC-3,> 100 µM (inactive)
same,GI50,MDA-MB-435,26.9 µM (inactive)
same,GI50,UO-31,24.2 µM (inactive)
same,GI50,SNB-75,> 100 µM (inactive)
same,GI50,SK-MEL-2,> 100 µM (inactive)
same,GI50,SNB-19,> 100 µM (inactive)
same,GI50,Hs-578T,> 100 µM (inactive)
same,GI50,NCI-H522,> 100 µM (inactive)
same,GI50,UACC-62,> 100 µM (inactive)
same,GI50,TK-10,> 100 µM (inactive)
same,GI50,HCT-15,32.1 µM
same,GI50,A498,40.9 µM (inactive)
same,GI50,HCT-116,> 100 µM (inactive)
same,GI50,OVCAR-4,> 100 µM (inactive)
same,GI50,CCRF-CEM,> 100 µM (inactive)
same,GI50,MOLT-4,> 100 µM (inactive)
same,GI50,ACHN,34.7 µM (inactive)
same,GI50,HT-29,> 100 µM (inactive)
same,GI50,NCI/ADR-RES,> 100 µM (inactive)
same,GI50,IGROV-1,> 100 µM (inactive)
same,GI50,786-0,> 100 µM (inactive)
same,GI50,CAKI-1,> 100 µM (inactive)
same,GI50,SK-MEL-5,94.8 µM (inactive)
same,GI50,A549,47.2 µM (inactive)
same,GI50,RXF 393,> 100 µM (inactive)
same,GI50,MDA-MB-231,> 100 µM (inactive)
same,GI50,OVCAR-3,> 100 µM (inactive)
same,GI50,LOX IMVI,> 100 µM (inactive)
same,GI50,M14,> 100 µM (inactive)
same,GI50,MDA-N,> 100 µM (inactive)
same,GI50,NCI-H23,89.3 µM (inactive)
same,GI50,SF-268,50.6 µM (inactive)
same,GI50,SF-539,21 µM (inactive)
same,GI50,OVCAR-8,> 100 µM (inactive)
same,GI50,K562,> 100 µM (inactive)
same,GI50,SK-OV-3,> 100 µM (inactive)
same,GI50,SN12C,> 100 µM (inactive)
same,GI50,OVCAR-5,72.8 µM (inactive)
same,GI50,RPMI-8226,16.7 µM (inactive)
same,GI50,HOP-62,> 100 µM (inactive)
same,GI50,U-251,> 100 µM (inactive)
same,GI50,NCI-H460,> 100 µM (inactive)
same,GI50,NCI-H226,93.3 µM (inactive)
same,GI50,UACC-257,> 100 µM (inactive)
N=C(N)SCCc1ccccn1,GI50,MCF7,> 100 µM (inactive)
same,GI50,DU-145,> 100 µM (inactive)
same,GI50,SF-295,> 100 µM (inactive)
same,GI50,BT-549,> 100 µM (inactive)
same,GI50,EKVX,89.3 µM (inactive)
same,GI50,HCC 2998,> 100 µM (inactive)
same,GI50,PC-3,> 100 µM (inactive)
same,GI50,MDA-MB-435,> 100 µM (inactive)
same,GI50,SR,> 100 µM (inactive)
same,GI50,Hs-578T,> 100 µM (inactive)
same,GI50,TK-10,> 100 µM (inactive)
same,GI50,HT-29,> 100 µM (inactive)
same,GI50,NCI/ADR-RES,> 100 µM (inactive)
same,GI50,CAKI-1,> 100 µM (inactive)
same,GI50,MDA-MB-231,55.2 µM (inactive)
same,GI50,MDA-N,> 100 µM (inactive)
same,GI50,K562,> 100 µM (inactive)
same,GI50,U-251,51.2 µM (inactive)
same,GI50,UACC-257,> 100 µM (inactive)
CNC(=O)Oc1ccc(C(=S)Nc2ccc(Br)cc2)cc1,GI50,Malme-3M,31.3 µM (inactive)
same,GI50,KM12,14.3 µM (inactive)
same,GI50,MCF7,18.3 µM (inactive)
same,GI50,DU-145,26.5 µM (inactive)
same,GI50,SK-MEL-28,22 µM (inactive)
same,GI50,T47D,18.5 µM (inactive)
same,GI50,SW-620,23.1 µM (inactive)
same,GI50,COLO 205,18.2 µM (inactive)
same,GI50,BT-549,17.1 µM (inactive)
same,GI50,EKVX,8.05 µM (inactive)
same,GI50,HCC 2998,17.8 µM (inactive)
same,GI50,PC-3,23.8 µM (inactive)
same,GI50,MDA-MB-435,21.8 µM (inactive)
same,GI50,SR,13.6 µM (inactive)
same,GI50,UO-31,17 µM (inactive)
same,GI50,SK-MEL-2,17.7 µM (inactive)
same,GI50,SNB-19,36.3 µM (inactive)
same,GI50,Hs-578T,19.8 µM (inactive)
same,GI50,NCI-H522,11.4 µM (inactive)
same,GI50,UACC-62,12.9 µM (inactive)
same,GI50,HCT-15,16.1 µM
same,GI50,A498,18.4 µM (inactive)
same,GI50,HCT-116,19.8 µM (inactive)
same,GI50,OVCAR-4,18.5 µM (inactive)
same,GI50,CCRF-CEM,1.81 µM (inactive)
same,GI50,MOLT-4,5.42 µM (inactive)
same,GI50,ACHN,24.4 µM (inactive)
same,GI50,HT-29,19.9 µM (inactive)
same,GI50,NCI/ADR-RES,17.6 µM (inactive)
same,GI50,IGROV-1,0.783 µM (active)
same,GI50,786-0,21.8 µM (inactive)
same,GI50,CAKI-1,17.8 µM (inactive)
same,GI50,SK-MEL-5,17.8 µM (inactive)
same,GI50,A549,21.9 µM (inactive)
same,GI50,OVCAR-3,19.7 µM (inactive)
same,GI50,LOX IMVI,13.4 µM (inactive)
same,GI50,M14,18.1 µM (inactive)
same,GI50,MDA-N,22.2 µM (inactive)
same,GI50,NCI-H23,15.7 µM (inactive)
same,GI50,SF-268,9.55 µM (inactive)
same,GI50,SF-539,18.4 µM (inactive)
same,GI50,HL-60,2.1 µM (inactive)
same,GI50,OVCAR-8,7.98 µM (inactive)
same,GI50,K562,14.1 µM (inactive)
same,GI50,SK-OV-3,44 µM (inactive)
same,GI50,OVCAR-5,25.4 µM (inactive)
same,GI50,RPMI-8226,23 µM (inactive)
same,GI50,HOP-62,20.6 µM (inactive)
same,GI50,U-251,23.2 µM (inactive)
same,GI50,UACC-257,28.4 µM (inactive)
